Results reported in patent publication US20220249540A1, “INHALABLE COMPOSITION COMPROMISING CYCLODEXTRIN FOR USE IN THE TREATMENT OF NASAL INFLAMMATIONS” (AQUILON PHARMACEUTICALS SA, priority 2019, published 2022).

Assays:
[1] = tested on: goblet cells in nasal mucosa tissue; assay: goblet cells in nasal mucosa tissue of Ovalbumin-sensitized mice (PAS staining); assay type: in vivo, BALB/c mice; settings: 50 mM in PBS by aerosolization 360 min before each OVA inhalation, Day 22 to 98; control group 50%
Description: Eight male and female BALB/c mice (6-8 weeks of age at the beginning of the protocol) were sensitized with Ovalbulmin (OVA) on D1 and D11 by intraperitoneal (i.p.) injection (10 μg grade V OVA diluted in 200 μl PBS), followed by OVA aerosols (10% grade Ill OVA dissolved in PBS buffer −50 ml were aerosolized with ultrasonic nebulizer during 30 minutes in a 30×20×15 cm Plexiglas exposure box where the animals were authorized to breathe and move normally). Aerosol administration was performed 360 min after i.n. treatments with Placebo or hydroxypropyl-gamma-cyclodextrin (HP-gamma-CD) during even weeks from days 22 to 98 (5 days/even week).
Mice were treated from Day 22 to Day 98 (5 days per week even week) with PBS (8 mice in control group) or with hydroxypropyl-gamma-cyclodextrin 50 mM diluted in PBS (8 mice in treated group) by aeorosolization (50 ml were aerosolized during 30 minutes in a Plexiglas exposure box where the animals were authorized to breathe and move normally) 360 min before each OVA inhalation.
On Day 99, the animals were sacrificed. […]
Numbers of goblet cells were counted using digitalized images of histological slides. Three hundred epithelial cells were counted at random and the percentage of positive cells for PAS staining (Goblet cells) was established relative to cells negative for PAS staining.

[2] = tested on: Wistar rats; assay: two-week Dose-Range-Finding (DRF) Inhalation Study, histopathology of the nasal cavities; assay type: in vivo; settings: for Normal (number of animals with normal nasal cavity histopathology): 3 examined
Description: Hydroxypropylbetacyclodextrin (HPBCD) was administered during two-weeks in a Dose-Range-Finding (DRF) Inhalation Study to Wistar rats in three different delivered doses: • low of 20 mg/kg/day and a target atmosphere concentration of 0.3 mg/L, • medium of 60 mg/kg/day and a target atmosphere concentration of 0.9 mg/L, and • […] to each three male and three non-pregnant female rats.
A control group which received control vehicle in the form of citrate buffer was provided with three male and three non-pregnant female rats. After terminal euthanasia, the nasal cavity was removed. Nasal cavities were embedded in paraffin wax, sections were cut at 4-6 μm by microtome and transferred to slides. Tissue sections were stained with haematoxylin-eosin/phloxine and examined by light microscope. Full histopathology of the nasal cavities, as well as the other organs of the respiratory tract, was performed in each group and is shown in FIG. 1. 4 levels of the nasal cavities were examined, among which 1 level included the nasopharyngeal duct and Nasal Associated Lymphoid Tissue (NALT).
Nasal cavities analyzed by histopathology were normal at all exposure levels of HPBCD.

| Normal (number of animals with normal nasal cavity histopathology) ([2]; Female, High dosage (180 mg/kg/day)) | Normal (number of animals with normal nasal cavity histopathology) ([2]; Female, Low dosage (20 mg/kg/day)) | Normal (number of animals with normal nasal cavity histopathology) ([2]; Female, Mid dosage (60 mg/kg/day)) | Normal (number of animals with normal nasal cavity histopathology) ([2]; Male, High dosage (180 mg/kg/day)) | Normal (number of animals with normal nasal cavity histopathology) ([2]; Male, Low dosage (20 mg/kg/day)) | Normal (number of animals with normal nasal cavity histopathology) ([2]; Male, Mid dosage (60 mg/kg/day)) | Nasal cavities analyzed by histopathology ([2]; all exposure levels (20, 60, 180 mg/kg/day), nose-only inhalation, 90 min/day, 14 days) | Compound | % of goblet cells in nasal mucosa tissue [1] [%] |
| --- | --- | --- | --- | --- | --- | --- | --- | --- |
|  |  |  |  |  |  |  | 2-hydroxypropyl-γ-cyclodextrin [Hydroxypropyl-gamma-cyclodextrin] | 20 |
| 3 | 3 | 3 | 3 | 3 | 3 | normal | CC(O)COC[C@H]1O[C@@H]2O[C@H]3[C@H](O)[C@@H](O)[C@@H](O[C@H]4[C@H](O)[C@@H](O)[C@@H](O[C@H]5[C@H](O)[C@@H](O)[C@@H](O[C@H]6[C@H](O)[C@@H](O)[C@@H](O[C@H]7[C@H](O)[C@@H](O)[C@@H](O[C@H]8[C@H](O)[C@@H](O)[C@@H](O[C@H]1[C@H](O)[C@H]2O)O[C@@H]8COCC(C)O)O[C@@H]7COCC(C)O)O[C@@H]6COCC(C)O)O[C@@H]5COCC(C)O)O[C@@H]4COCC(C)O)O[C@@H]3COCC(C)O (stereo partly drawn) [HPBCD, 2-hydroxypropyl-beta-cyclodextrin] |  |
